According to PubChem BioAssay AID1259407 (Chemical Carcinogenesis Research Information System (CCRIS), 2018):
Calls of active or inactive are those of the source. The rule behind the calls is not given here.

Test system: CCRIS mutagenicity, Ames/micronucleus/aberration tests
Assay: CCRIS mutagenicity studies

Cc1ccccc1N
mutagenic call (Test System: AMES SALMONELLA TYPHIMURIUM, Strain/Indicator: TA104, Metabolic Activation: HAMSTER, LIVER, S-9, SODIUM PHENOBARBITAL AND 5,6-BENZOFLAVONE, Method: PREINCUBATION): inactive; negative
mutagenic call (Test System: AMES SALMONELLA TYPHIMURIUM, Strain/Indicator: TA104, Metabolic Activation: NONE, Method: PREINCUBATION): inactive; negative
mutagenic call (Test System: AMES SALMONELLA TYPHIMURIUM, Strain/Indicator: TA1535, Metabolic Activation: HAMSTER LIVER S-9, AROCLOR 1254 (10%), Method: PREINCUBATION): inactive; negative
mutagenic call (Test System: AMES SALMONELLA TYPHIMURIUM, Strain/Indicator: TA1535, Metabolic Activation: HAMSTER, LIVER, S-9, AROCLOR 1254 (10%), Method: PREINCUBATION): inactive; negative
mutagenic call (Test System: AMES SALMONELLA TYPHIMURIUM, Strain/Indicator: TA1535, Metabolic Activation: HAMSTER, LIVER, S-9, SODIUM PHENOBARBITAL AND 5,6-BENZOFLAVONE, Method: PREINCUBATION): inactive; negative
mutagenic call (Test System: AMES SALMONELLA TYPHIMURIUM, Strain/Indicator: TA1535, Metabolic Activation: NONE, Method: PREINCUBATION): inactive; negative
mutagenic call (Test System: AMES SALMONELLA TYPHIMURIUM, Strain/Indicator: TA1535, Metabolic Activation: NONE, Method: STANDARD PLATE): inactive; negative
mutagenic call (Test System: AMES SALMONELLA TYPHIMURIUM, Strain/Indicator: TA1535, Metabolic Activation: RAT LIVER S-9, AROCLOR 1254 (10 OR 30%), Method: PREINCUBATION): inactive; negative
mutagenic call (Test System: AMES SALMONELLA TYPHIMURIUM, Strain/Indicator: TA1535, Metabolic Activation: RAT, LIVER, S-9, AROCLOR 1254 (10%), Method: PREINCUBATION): inactive; negative
mutagenic call (Test System: AMES SALMONELLA TYPHIMURIUM, Strain/Indicator: TA1535, Metabolic Activation: RAT, LIVER, S-9, AROCLOR 1254, Method: STANDARD PLATE): inactive; negative
mutagenic call (Test System: AMES SALMONELLA TYPHIMURIUM, Strain/Indicator: TA1537, Metabolic Activation: HAMSTER, LIVER, S-9, AROCLOR 1254 (10%), Method: PREINCUBATION): inactive; negative
mutagenic call (Test System: AMES SALMONELLA TYPHIMURIUM, Strain/Indicator: TA1537, Metabolic Activation: HAMSTER, LIVER, S-9, SODIUM PHENOBARBITAL AND 5,6-BENZOFLAVONE, Method: PREINCUBATION): inactive; negative
mutagenic call (Test System: AMES SALMONELLA TYPHIMURIUM, Strain/Indicator: TA1537, Metabolic Activation: NONE, Method: PREINCUBATION): inactive; negative
mutagenic call (Test System: AMES SALMONELLA TYPHIMURIUM, Strain/Indicator: TA1537, Metabolic Activation: NONE, Method: STANDARD PLATE): inactive; negative
mutagenic call (Test System: AMES SALMONELLA TYPHIMURIUM, Strain/Indicator: TA1537, Metabolic Activation: RAT, LIVER, S-9, AROCLOR 1254 (10%), Method: PREINCUBATION): inactive; negative
mutagenic call (Test System: AMES SALMONELLA TYPHIMURIUM, Strain/Indicator: TA1537, Metabolic Activation: RAT, LIVER, S-9, AROCLOR 1254, Method: STANDARD PLATE): inactive; negative
mutagenic call (Test System: AMES SALMONELLA TYPHIMURIUM, Strain/Indicator: TA1538, Metabolic Activation: NONE, Method: STANDARD PLATE): inactive; negative
mutagenic call (Test System: AMES SALMONELLA TYPHIMURIUM, Strain/Indicator: TA1538, Metabolic Activation: RAT, LIVER, S-9, AROCLOR 1254, Method: STANDARD PLATE): inactive; negative
mutagenic call (Test System: CHINESE HAMSTER OVARY, Strain/Indicator: CHO/6-THIOGUANINE, Metabolic Activation: HAMSTER EMBRYO CELL-MEDIATED): inactive; negative
mutagenic call (Test System: CHINESE HAMSTER OVARY, Strain/Indicator: CHO/6-THIOGUANINE, Metabolic Activation: NONE): inactive; negative
mutagenic call (Test System: CHINESE HAMSTER OVARY, Strain/Indicator: CHO/OUABAIN, Metabolic Activation: NONE): inactive; negative
mutagenic call (Test System: CHINESE HAMSTER V-79, Strain/Indicator: V-79 (HGPRT)/6-THIOGUANINE, Metabolic Activation: NONE): inactive; negative
mutagenic call (Test System: CHINESE HAMSTER V-79, Strain/Indicator: V-79 (HGPRT)/6-THIOGUANINE, Metabolic Activation: RAT, LIVER, S-9, PHENOBARBITAL AND BETA-NAPHTHOFLAVONE): inactive; negative
mutagenic call (Test System: CHINESE HAMSTER V-79, Strain/Indicator: V-79/6-THIOGUANINE, Metabolic Activation: NONE, Method: REPLATING): active; positive
mutagenic call (Test System: CHINESE HAMSTER V-79, Strain/Indicator: V-79/6-THIOGUANINE, Metabolic Activation: RAT, LIVER, S-9, PHENOBARBITAL AND 5,6-BENZOFLAVONE, Method: REPLATING): inactive; negative
mutagenic call (Test System: CHINESE HAMSTER V-79, Strain/Indicator: V-79/OUABAIN, Metabolic Activation: NONE): inactive; negative
mutagenic call (Test System: CHINESE HAMSTER V-79, Strain/Indicator: V-79/OUABAIN, Metabolic Activation: RAT, LIVER, S-15, PHENOBARBITAL AND 5,6-BENZOFLAVONE): inactive; negative
mutagenic call (Test System: E. COLI, Strain/Indicator: WP2UVRA/PKM101, Metabolic Activation: HAMSTER, LIVER, S-9, SODIUM PHENOBARBITAL AND 5,6-BENZOFLAVONE, Method: PREINCUBATION): inactive; negative
mutagenic call (Test System: E. COLI, Strain/Indicator: WP2UVRA/PKM101, Metabolic Activation: NONE, Method: PREINCUBATION): inactive; negative
mutagenic call (Test System: E. COLI, Strain/Indicator: WP2UVRA, Metabolic Activation: HAMSTER, LIVER, S-9, SODIUM PHENOBARBITAL AND 5,6-BENZOFLAVONE, Method: PREINCUBATION): inactive; negative
mutagenic call (Test System: E. COLI, Strain/Indicator: WP2 UVRA, Metabolic Activation: NONE, Method: PREINCUBATION): inactive; negative
mutagenic call (Test System: E. COLI, Strain/Indicator: WP2UVRA, Metabolic Activation: NONE, Method: PREINCUBATION): inactive; negative
mutagenic call (Test System: E. COLI, Strain/Indicator: WP2 UVRA, Metabolic Activation: RAT, LIVER, S-9, PHENOBARBITAL AND 5,6-BENZOFLAVONE, Method: PREINCUBATION): inactive; negative
mutagenic call (Test System: MOUSE LYMPHOMA, Strain/Indicator: L5178Y (TK+/+)/OUABAIN, Metabolic Activation: NONE, Method: SUSPENSION/PLATE): inactive; negative
mutagenic call (Test System: MOUSE LYMPHOMA, Strain/Indicator: L5178Y (TK+/+)/OUABAIN, Metabolic Activation: RAT LIVER S-9, AROCLOR 1254, Method: SUSPENSION/PLATE): inactive; negative
mutagenic call (Test System: MOUSE LYMPHOMA, Strain/Indicator: L5178Y (TK+/-)/TRIFLUROTHYMIDINE, Metabolic Activation: NONE, Method: SUSPENSION/PLATE): inactive; negative
mutagenic call (Test System: MOUSE LYMPHOMA, Strain/Indicator: L5178Y (TK+/-)/TRIFLUROTHYMIDINE, Metabolic Activation: RAT LIVER S-9, AROCLOR 1254, Method: SUSPENSION/PLATE): inactive; negative
mutagenic call (Test System: MOUSE LYMPHOMA, Strain/Indicator: L5178Y (TK+/TK-), Metabolic Activation: NONE, Method: SUSPENSION/PLATE): inactive; negative
mutagenic call (Test System: MOUSE LYMPHOMA, Strain/Indicator: L5178Y (TK+/TK-), Metabolic Activation: RAT, LIVER, S-9, Method: SUSPENSION/PLATE): inactive; negative
mutagenic call (Test System: UDS RAT HEPATOCYTES, Strain/Indicator: THY INCORP, Metabolic Activation: NONE, Method: LIQUID SCINTILLATION COUNTING): active; positive
